From patent publication US6180666A, “Use of gallic acid esters to increase bioavailability of orally administered pharmaceutical compounds” (priority 1999, dated 2001)
Read-outs that look alike come from different tables or passages of the source.

Experiments:
CYP3A [1] = target: T1, CYP3A (Homo sapiens, UniProt P08684); test: Inhibition of CYP3A-mediated nifedipine metabolism in human liver microsomes by gallic acid esters (Example 1); conditions: for activity at 10 µM / activity at 25 µM / activity at 50 µM / activity at 100 µM / activity at 500 µM: read-out: Relative Nifedipine Oxidation Rate (± S.D.)
T1 sequence (P08684 2-503 limits assumed): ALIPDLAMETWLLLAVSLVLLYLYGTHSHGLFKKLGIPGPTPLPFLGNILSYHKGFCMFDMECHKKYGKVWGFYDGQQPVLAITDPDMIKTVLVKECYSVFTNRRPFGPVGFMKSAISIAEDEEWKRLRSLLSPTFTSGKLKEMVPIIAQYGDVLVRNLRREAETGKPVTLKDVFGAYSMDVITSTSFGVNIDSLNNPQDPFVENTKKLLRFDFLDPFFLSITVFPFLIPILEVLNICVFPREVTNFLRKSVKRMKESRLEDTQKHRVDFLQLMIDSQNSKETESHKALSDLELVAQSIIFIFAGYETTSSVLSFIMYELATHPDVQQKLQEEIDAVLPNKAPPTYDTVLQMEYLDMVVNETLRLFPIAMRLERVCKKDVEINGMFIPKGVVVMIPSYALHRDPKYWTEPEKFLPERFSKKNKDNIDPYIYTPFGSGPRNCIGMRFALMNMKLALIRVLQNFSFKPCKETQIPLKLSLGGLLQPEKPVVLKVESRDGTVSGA
Protocol: The known CYP3A substrate nifedipine (Gonzalez, F. J., et al., Human P45OPCN1: sequence, chromosome localization, and direct evidence through cDNA expression that P45OPCN1 is nifedipine oxidase, DNA, 2:79-86 (1988)) was used as a test substrate for evaluating the potential of various gallic acid esters to inhibit CYP3A metabolism in a human liver microsome study.
(§1) Microsomal pellets were prepared from the homogenate using standard differential centrifugation procedures (Guengerich, Analysis and characterization of enzymes in Principles and Methods of Toxicology, A. W. Hayes (ed.), Raven Press, New York. pp. 777-814 (1989)) and were stored at -80° C. in Tris-acetate buffer, pH 7.4, containing 20% w/v glycerol. Microsomes were diluted in 100 mM potassium phosphate buffer, pH 7.4, for use in metabolic incubations. Microsomal protein and CYP content of the human liver microsomes were determined using methods of Bradford (Bradford, M. M. A rapid and sensitive method for the quantitation of microgram quantities of protein utilizing the principles of protein-dye binding. Anal. Biochem. 72:248-254 (1976)) and Omura and Sato (Omura, T. et. al. The carbon monoxide-binding pigment of liver microsomes II. Solubilization, purification and properties. J. Biol. Chem. 239:2370-2378 (1964)), respectively.
In the experiments, 100 μM nifedipine and either 5 μl of a solution of one of the gallic acid esters (at a concentration indicated in Table 1) or 5 μl of solvent alone (control) were preincubated along with 0.1 mg/ml of the human liver microsomal proteins and 1 mM diethylenetriarninepentaacetic acid (DETAPAC) in 100 mM phosphate buffer, pH 7.4, for 5 minutes at 37°0 C. Metabolic reactions were started by addition of reduced β-nicotinamide adenine dinucleotide phosphate (NADPH) to give a final concentration of 1 mM and a final volume of 0.5 ml. Metabolic reactions were stopped after 3 minutes by vortex mixing with 0.2 ml of an extraction solvent of (94:6) acetonitrile:glacial acetic acid. Protein was precipitated by centrifugation (3000 rpm×10 minutes) and supernatants were analyzed for nifedipine and its oxidation product 2,6-dimethyl-4-(2-nitrophenyl)-3,5-pyridinedicarboxylic acid dimethyl ester by High Performance Liquid Chromatography (HPLC).
All experiments were conducted in triplicate and compared to incubations carried out without NADPH or without substrate. The data are the mean±standard deviation of three measurements.
^a Substrate and inhibitor were dissolved in acetonitrile except for
lauryl gallate which required methanol as vehicle.
^b Inhibition constant Ki determinations utilized 10, 20, 50 and
100 μM nifedipine substrate concentrations and experiments were run in
duplicate. Ki values were determined by regression analysis of rate
data using SigmaPlot V4.OS software (SPSS Inc., San Rafael, California).

[2] = Joint FAO/WHO Expert Committee, cited from earlier work; for temporary acceptable daily intake: 1/200 of no observed effect level, 90 day feeding studies in rats
CYP3A [3] = target: T1, CYP3A; test: Inhibition of CYP3A-mediated metabolism of amiodarone, buspirone and nifedipine in human liver microsomes (Example 2)
Protocol: as §1
(§2) The ability of propyl gallate at various concentrations to inhibit metabolism for three representative drugs through inhibition of the cytochrome P450 mechanism was tested. Human liver microsomes were prepared and each of three drugs, amiodarone, buspirone, or nifedipine, were incubated with the microsomes in the presence of propyl gallate or a known inhibitor of CYP3A metabolism. Metabolism in the presence of propyl gallate or known CYP3A inhibitor was compared to a control treated only with the solvent in which the inhibitor was dissolved.
(§3) Clin. Pharmacol. Ther. 64: 655-60 (1998)) by human liver microsomes was tested. The microsomes were prepared as in Example 1.
(§4) The amiodarone was present in a concentration of 100 μM, the buspirone was in a concentration of 25 μM, and the nifedipine was present in a concentration of 25 μM. The propyl gallate was tested with each of these drugs at concentrations of 25, 50, and 100 μM.
(§5) The drug and optionally the inhibitor were preincubated with the microsomes at 1 nmol CYP/ml and 1 mM DETAPAC in 100 mM phosphate buffer, pH 7.4 for 5 minutes at 37° C. After the preincubation, metabolic reactions were started by the addition of 1 mM NADPH. Samples were taken at 1, 2, and 3 minutes after the start of the reaction and analyzed by HPLC. Disappearance of substrate and/or formation of metabolite were quantitated by comparison to standard curves.
(§6) The metabolism rates (nmol/ml/min) are the mean±standard deviation of three measurements.
(§7) ^a Formation rate of N-desethylamiodarone metabolite (nmol/ml/min)
(§8) ^b Buspirone disappearance (nmol/ml/min)
(§9) ^c Formation of nifedipine oxidation product
(§10) 2,6-dimethyl-4-(2-nitrophenyl)-3,5-pyridinedicarboxylic acid, dimethyl

CYP3A [4] = test: as above
Protocol: as §1, §2, §3, §4, §5, §6, §7, §8, §9, §10

[5] = read-out: Buspirone metabolism rate, % control
[6] = read-out: Nifedipine metabolism rate, % control
[7] = inhibitor 100 μM, amiodarone 100 μM

CCCCCCCCCCCCOC(=O)c1cc(O)c(O)c(O)c1 [Lauryl gallate, lauryl gallate]
activity at 10 µM (CYP3A [1]): 61%
activity at 25 µM (CYP3A [1]): 31%
activity at 50 µM (CYP3A [1]): 12.6%
activity at 100 µM (CYP3A [1]): 6.4%
temporary acceptable daily intake [2]: 0-0.05 mg/kg body weight

COC(=O)c1cc(O)c(O)c(O)c1 [Methyl gallate, methyl gallate]
activity at 100 µM (CYP3A [1]): 53%
activity at 500 µM (CYP3A [1]): 16%

CCCOC(=O)c1cc(O)c(O)c(O)c1 [Propyl gallate, 3,4,5-trihydroxybenzoic acid, n-propyl ester]
Ki (CYP3A [1]): 64 ± 2 µM
activity at 50 µM (CYP3A [1]): 59%
activity at 100 µM (CYP3A [1]): 34%
activity at 500 µM (CYP3A [1]): 6.1%
acceptable daily intake ([2]; 1/100 of no observed effect level, 90 day feeding study in rats): 0 to 1.4 mg/kg/day
remaining activity at 25 µM (CYP3A [3]; [5]): 65%
remaining activity at 50 µM (CYP3A [3]; [5]): 42%
remaining activity at 100 µM (CYP3A [3]; [5]): 29%
remaining activity at 25 µM (CYP3A [3]; [6]): 82%
remaining activity at 50 µM (CYP3A [3]; [6]): 54%
remaining activity at 100 µM (CYP3A [3]; [6]): 33%
Inhibition of CYP3A-mediated metabolism (in words) (CYP3A [4]): effective inhibitor of CYP3A-mediated metabolism
Inhibition of drug metabolism compared with known CYP3A inhibitors (in words) (CYP3A [4]): better at inhibiting drug metabolism than the established CYP3A inhibitors diltiazem, erythromycin, and verapamil
Mean ± SD metabolism rate, amiodarone (formation rate of N-desethylamiodarone) (CYP3A [4]; inhibitor 25 μM, amiodarone 100 μM): 0.94 ± 0.02 nmol/mL/min
Mean ± SD metabolism rate, amiodarone (formation rate of N-desethylamiodarone) (CYP3A [4]; inhibitor 50 μM, amiodarone 100 μM): 0.55 ± 0.02 nmol/mL/min
Mean ± SD metabolism rate, amiodarone (formation rate of N-desethylamiodarone) (CYP3A [4]; [7]): 0.32 ± 0.03 nmol/mL/min
Amiodarone metabolism rate, % control (CYP3A [4]; microsomes, 25 µM): 49 % control
Amiodarone metabolism rate, % control (CYP3A [4]; microsomes, 50 µM): 28 % control
Amiodarone metabolism rate, % control (CYP3A [4]; microsomes, 100 µM): 17 % control

CC(=O)N1CCN(c2ccc(OCC3COC(Cn4ccnc4)(c4ccc(Cl)cc4Cl)O3)cc2)CC1 (centres unmarked) [Ketoconazole, reference compound]
Amiodarone metabolism rate, % control (CYP3A [4]; inhibitor 1 μM, amiodarone 100 μM): 4 % control

CC[C@H]1OC(=O)[C@H](C)[C@@H](O[C@H]2C[C@@](C)(OC)[C@@H](O)[C@H](C)O2)[C@H](C)[C@@H](O[C@@H]2O[C@H](C)C[C@H](N(C)C)[C@H]2O)[C@](C)(O)C[C@@H](C)C(=O)[C@H](C)[C@@H](O)[C@]1(C)O [Erythromycin, reference compound]
Mean ± SD metabolism rate, amiodarone (formation rate of N-desethylamiodarone) (CYP3A [4]; [7]): 0.84 ± 0.07 nmol/mL/min

CCCCCCCCOC(=O)c1cc(O)c(O)c(O)c1 [Octyl gallate, octyl gallate]
Inhibition of CYP3A-mediated metabolism (in words) (CYP3A [1]): especially good inhibitor of the metabolism at relatively low concentrations
Ki (CYP3A [1]): 5.2 ± 0.2 µM
activity at 10 µM (CYP3A [1]): 44%
activity at 25 µM (CYP3A [1]): 17.5%
activity at 50 µM (CYP3A [1]): 4.9%
activity at 100 µM (CYP3A [1]): 1.1%
temporary acceptable daily intake [2]: 0-0.1 mg/kg body weight
